According to the NIST ThermoML archive (doi:10.1021/je060113j):

Columns and labels:
[1] = 101.33 kPa, Liquid; for viscosity: Capillary tube (Ostwald / Ubbelohde) method; for mass density: Pycnometric method; for speed of sound: Sing-around technique in a fixed-path interferometer
[2] = xn = mol fraction of the nth substance listed; settings: 101 kPa, Liquid; for viscosity: Capillary tube (Ostwald / Ubbelohde) method; for mass density: Pycnometric method; for speed of sound: Sing-around technique in a fixed-path interferometer

CN(C)C=O [dimethylformamide]
[1]
Settings | mass density [kg/m3] | speed of sound [m/s] | viscosity [mPa·s]
298.15 K | 946.1 | 1465 | 0.8586
308.15 K | 939.9 | – | 0.7763
318.15 K | 931.6 | – | 0.7125

C1CCOC1 [tetrahydrofuran] + OCCO
[2], x2 = 0.5374
Settings | mass density [kg/m3] | speed of sound [m/s] | viscosity [mPa·s]
298.15 K | 984.5 | 1436.8 | 2.509
308.15 K | 974.1 | – | 1.866
318.15 K | 964.9 | – | 1.558

C[S+](C)[O-] [dimethyl sulfoxide]
[1]
Settings | mass density [kg/m3] | speed of sound [m/s] | viscosity [mPa·s]
298.15 K | 1095.4 | 1493 | 2.042
308.15 K | 1085.9 | – | 1.568
318.15 K | 1076.7 | – | 1.485

C1CCOC1 [tetrahydrofuran]
[1]
Settings | mass density [kg/m3] | speed of sound [m/s] | viscosity [mPa·s]
298.15 K | 880.7 | 1279 | 0.463
308.15 K | 871.2 | – | 0.4277
318.15 K | 861.4 | – | 0.3902

C1COCCO1 [1,4-dioxane] + OCCO
[2], x2 = 0.5867
Settings | mass density [kg/m3] | speed of sound [m/s] | viscosity [mPa·s]
298.15 K | 1070.9 | 1519.2 | 4.386
308.15 K | 1060.4 | – | 3.36
318.15 K | 1050.9 | – | 2.661

C1COCCO1 [1,4-dioxane]
[1]
Settings | mass density [kg/m3] | speed of sound [m/s] | viscosity [mPa·s]
298.15 K | 1027.3 | 1344 | 1.224
308.15 K | 1016 | – | 0.9268
318.15 K | 1005.6 | – | 0.7991

O [water]
[1]
Settings | mass density [kg/m3] | speed of sound [m/s] | viscosity [mPa·s]
298.15 K | – | 1498 | 0.8904
308.15 K | 994.1 | – | 0.7194
318.15 K | 990.3 | – | 0.596

OCCO [1,2-ethanediol] + CN(C)C=O
[2], x1 = 0.5408
Settings | mass density [kg/m3] | speed of sound [m/s] | viscosity [mPa·s]
298.15 K | 1024.8 | 1584.4 | 3.065
308.15 K | 1016.8 | – | 2.453
318.15 K | 1008.2 | – | 1.96

OCCO [1,2-ethanediol] + C[S+](C)[O-]
[2], x1 = 0.5573
Settings | mass density [kg/m3] | speed of sound [m/s] | viscosity [mPa·s]
298.15 K | 1108.5 | 1617.3 | 5.195
308.15 K | 1098.9 | – | 3.901
318.15 K | 1089.6 | – | 3.108

OCCO [1,2-ethanediol]
[1]
Settings | mass density [kg/m3] | speed of sound [m/s] | viscosity [mPa·s]
298.15 K | 1106.3 | 1666 | 16.39
308.15 K | – | – | 10.77
318.15 K | – | – | 7.703
